Data: patent US20260023070A1, “OPTOGENETIC ALPHA-SYNUCLEIN AGGREGATION SYSTEM-BASED COMPOUND SCREENING PLATFORM IN PD-hiPSC-mDA NEURONS” (The Johns Hopkins University, priority 2022, published 2026)

Legend:
opto-α-syn SH-SY5Y cells = assay: OASIS-based high-content imaging assay of light-induced α-syn aggregation (5G4 staining, Aggregates Induction Score); assay type: cell-based, human; details: for AIS compared to blue light-illuminated DMSO control: two independent experiments, 24-well culture conditions, blue light stimulation; for AIS, aggregates induction score: validation of 19 hits, 24-well plates, blue light, AIS normalized to positive control (blue light, DMSO) set as 1.0
Experimental: The opto-α-syn expressing SH-SY5Y cells were seeded in 96-well black flat bottom imaging microplates (Falcon) at 30,000 cells per well in 100 μL of complete media using E1-ClipTip electronic multichannel pipette (Thermo Fisher Scientific) and incubated in 37° C. and 5% CO2 humidified incubator. After 18 h of incubation, 10 μL of 10 μM compounds (column 2 to 10) or 1% DMSO (column 1 and 12) were added (final concentration of DMSO is 0.1%). In order to induce aggregations, the plates were illuminated with blue light (26 μW/mm^2) on customized blue light illumination 96-well plates for 2 h. Afterward, cells were fixed in 4% paraformaldehyde (PFA) for 15 min and stained with the aggregated-α-syn antibody (5G4) after permeabilization with 0.1% Triton X-100/0.5% BSA/PBS solution. […] To analyze images, the automated aggregation quantification algorithm and cell counting algorithm in the form of macro are developed using ImageJ software. Briefly, the algorithm includes the inversion, subtracting background, threshold selection, analyzing particles with ranged size and circularity. The Aggregates Induction Score (AIS) is calculated using, the following equation: […]
where N^agg is the number of aggregates, ^Ntotal is the number of total cells. The AIS in each well is normalized by the AIS in positive control which is set as 1.0. […] The hit selection strategy was based on calculated AIS; hits were defined as AIS<0.5. […] Two independent experiments were performed, and total 10 images per well are analyzed to calculate AIS.
As illustrated in FIGS. 8A-8E, high-content imaging screening with the optogenetic α-syn aggregation system was performed, following the schematic representation of the process of high-content imaging (HCI) screening with optogenetics-assisted method of alpha-synuclein aggregation induction system (OASIS) (FIG. 8A). SH-SY5Y cells expressing opto-α-syn were in dark or exposed to blue light (26 μW/mm^2 at 470 nm, 1 Hz, 1 s) for 1.5 h under 96-well plate culture conditions, and then immunostained with 5G4 antibody. The equation of Aggregates Induction Score (AIS) (FIG. 8B) was used for the calculation of Z′-factor for HCI screening with OASIS (FIG. 8C). […] Arrow represents the degree of separation (Z′-factor) between light-illuminated and darkness controls. […] Detailed information of numbered compounds was described in Table 1. One-way ANOVA followed by Dunnett's post hoc test (n=10 or 20, 5 or 10 images each from two independent experiments). *P<0.05, **P<0.01, ***P<0.001, ****P<0.0001.
As illustrated in FIGS. 9A-9B, high-content imaging screening with the optogenetic α-syn aggregation system was performed. The measurement of 5G4^+ aggregates in opto-mock or opto-α-syn SH-SY5Y neuronal cells was assessed. Cells were in dark or exposed to blue light (26 μW/mm^2 at 470 nm, 1 Hz, 1 s) for 1.5 h, and then immunostained with 5G4 antibody. […] Images were converted to grayscale, and a threshold was adjusted to exclude the background based on the size of particles. Once the value of threshold was determined, all the images were applied with the fixed threshold, and then the number of aggregates was measured (FIG. 9A). Number of DAPI from the original images were counted (FIG. 9B). Representative images of opto-α-syn SH-SY5Y neuronal cells treated with 19 compounds under 24-well plate culture conditions were imaged. SH-SY5Y cells expressing opto-α-syn were in dark or exposed to blue light (34 μW/mm^2 at 470 nm, 1 Hz, 0.5 s) for 1.5 h, and then immunostained with 5G4 antibody.

[1] = system: mouse primary neurons treated with α-syn PFF; assay: α-syn PFF model in mouse primary neurons (TX-insoluble pathologic α-syn); assay type: cell-based
Experimental: To validate the effects of these two compounds on the OASIS-independent model, α-syn PFF were treated with mouse primary neurons and non-OASIS-human PD hiPSC-derived mDA neurons with CDC 021 and BAG 956.

[2] = system: opto-α-syn PD hiPSC-derived mDA neurons; assay: Light-induced α-syn aggregation and neurotoxicity in opto-α-syn PD hiPSC-derived mDA neurons; assay type: cell-based, human; details: blue light 7 days; compared to DMSO control; significant at 1 and 10 nM CDC, 10 and 100 nM BAG
Experimental: Whether these potential hit compounds can inhibit α-syn aggregation and rescue aggregation-induced neuronal toxicity was tested on PD hiPSC-derived mDA neurons. The top 5 ranked small compounds in FIGURE SE were selected and these compounds to were used to treat opto-α-syn PD hiPSC-derived mDA neurons at three different concentrations (1 nM, 10 nM, 100 nM) with blue light stimulation. […] Overall, the two compounds were finally selected among the potential hit drugs from our novel opto-α-syn neuronal cell model-based primary screening (FIG. 11D), and they considerably rescued neuronal cell death from aggregation-induced TH^+ mDA neuron-selective toxicity in PD-iPSC derived neurons. To identify possible molecules involved in this compound-mediated recovery of TH^+ mDA neurons, RNA-sequencing (RNA-seq) analysis was performed with four different samples (dark condition with DMSO, blue light stimulation with DMSO, blue light stimulation with BAG treatment, and blue light stimulation with CDC treatment). To find BAG- or CDC-responsive genes, differentially expressed genes (DEGs) of DMSO-treated samples upon blue light stimulation were first extracted, and then the DEGs were filtered with criteria of which became non-DEGs in response to CDC or BAG treatment. […]
The effect of 5 selected compounds on opto-α-syn-expressing PD hiPSC-derived mDA neurons was evaluated. […]

[3] = system: blue light-illuminated opto-α-syn-mDA neurons; assay: Autophagy and aggregate clearance in blue light-illuminated opto-α-syn-mDA neurons; assay type: cell-based, human; details: additional treatment with BAG 956, blue light-illuminating condition
Experimental: Because autophagy can be activated by the inhibition of PI 3-kinase (PI3K) or the PDK1 pathway, it was tested whether treatment with BAG 956 can induce the autophagic flux to decrease α-syn aggregates in opto-α-syn mDA neurons and MOs.

SMILES	AIS, aggregates induction score (opto-α-syn SH-SY5Y cells)	other results
Cc1cc(Nc2nc(N[C@@H](C)c3ncc(F)cn3)ncc2Cl)n[nH]1 [AZD 1480]	0.31	AIS compared to blue light-illuminated DMSO control (opto-α-syn SH-SY5Y cells): significant decrease
CC(C)c1ccc2oc3nc(N)c(C(=O)O)cc3c(=O)c2c1 [Amlexanox]	0.53	–
O=C1NC(=O)c2c1c1c3ccccc3[nH]c1c1[nH]c3ccccc3c21 [Arcyriaflavin A]	0.37	AIS compared to blue light-illuminated DMSO control (opto-α-syn SH-SY5Y cells): significant decrease
CC1(C)C(=O)N=C2C1=C(O)C(=O)c1ccccc12 [BVT 948]	0.36	AIS compared to blue light-illuminated DMSO control (opto-α-syn SH-SY5Y cells): significant decrease
COc1cc2nc(N3CCC(N4CCCCC4)CC3)nc(NC3CCCCCC3)c2cc1OC.Cl.Cl [C 021 dihydrochloride]	0.19	pathologic α-syn in the Triton X-100 (TX)-insoluble fraction [1]: significantly reduced; AIS compared to blue light-illuminated DMSO control (opto-α-syn SH-SY5Y cells): significant decrease; survival rate of TH+ mDA neurons [2]: significant increase
O=C1CCc2cc(OCCCCc3nnnn3C3CCCCC3)ccc2N1 [Cilostazol]	0.65	–
CCCCCCCCCCC(C)(C)C(=O)Nc1c(OC)cc(OC)cc1OC [Compound C1976, CI 976]	0.63	–
NS(=O)(=O)c1cc2c(cc1Cl)NC(C1CC3C=CC1C3)NS2(=O)=O (stereo not shown) [Cyclothiazide]	0.68	–
C[C@@H]1C[C@H]2[C@@H]3CCC4=CC(=O)C=C[C@]4(C)[C@@]3(F)[C@@H](O)C[C@]2(C)[C@@]1(O)C(=O)CO [Dexamethasone]	0.74	–
O=C(O)c1ccccc1C(=O)Nc1ccc(-c2ccccc2)cc1 [Kartogenin]	0.98	–
COc1c(C)c2c(c(O)c1C/C=C(\C)CCC(=O)OCCN1CCOCC1)C(=O)OC2 [Mycophenolate mofetil]	0.71	–
COc1c(C)c2c(c(O)c1C/C=C(\C)CCC(=O)O)C(=O)OC2 [Mycophenolic acid]	0.57	–
CCCN(CCC)CCc1ccc(OC)c(OCCc2ccccc2)c1.Cl [NE 100 hydrochloride]	0.53	–
CC(=O)c1cc2c(o1)C(=O)c1ccccc1C2=O [Napabucasin]	0.97	–
CCOC(=O)c1ccc(N(C)c2csc(-c3ccccc3)n2)cc1 [Neuropathiazol]	0.73	–
CN(C)CCc1c[nH]c2ccc(Cn3cncn3)cc12 [Rizatriptan benzoate]	0.59	–
CCc1c(C(=O)Nc2cc(S(=O)(=O)N(CC)CC)ccc2O)[nH]c(C)c1C(C)=O [XD 14]	0.75	–
CO/C1=C\C(C)=C\[C@@H](C)[C@@H](O)[C@@H](C)C/C(C)=C/C=C/[C@H](OC)[C@@H]([C@@H](C)[C@@H](O)[C@H](C)[C@@]2(O)C[C@@H](O)[C@H](C)[C@@H](C(C)C)O2)OC1=O [bafilomycin A1]	–	BAG 956-mediated level of TH+ mDA neurons [3]: reversed; BAG 956-mediated reduction of 5G4+ α-syn aggregates [3]: reversed
